In patent US12115152B2, “Pan-RAF kinase inhibitor and use thereof” (HEFEI INSTITUTES OF PHYSICAL SCIENCE, CHINESE ACADEMY OF …, priority 2019, dated 2024):
Values joined by “and” are separate entries in the source; they are usually repeats but may differ in a detail not shown here. Identical values can stand only once. Like-named read-outs stand apart in the source and are kept apart here.

What was measured:
[1] = tested on: Calu-6 transplanted tumor nude mice; assay: Toxicity in Calu-6 cell transplanted tumor mouse model; conditions: Calu-6 cell transplanted tumor model, oral daily; Compound 16 50, 100, 200 mg/kg; Comparative Compound 1 100 mg/kg
[2] = Pharmacokinetic parameters in rats; assay type: in vivo, SD rats; conditions: rat
Procedure: In the example, SD rats (180-220 g, male) (purchased from Experimental Animal Center of Anhui Medical University, China) were used. The animals were kept in cages ventilated independently with 6 rats per cage. The feeding was performed at a temperature of 20˜26° C. and a humidity of 35-75%. The light condition was 12 hours of lighting/12 hours of darkness. The corncob bedding was refreshed once a week. The rats were fed with foods and drinking water on an ad libitum basis. The rats were marked with a number on the tails. During the experiment, the breeding and use of animals strictly follow the regulations of Association for Assessment and Accreditation of Laboratory Animal Care International.
Solutions of Compound 16 and Comparative Compound 1 were prepared as follows. 10 mg of the compound to be tested was precisely weighed into a sterile vial, and was dissolved with a small amount of DMSO, and then was made to a constant volume of 5 ml with 5% glucose solution, to give a gavage test solution at a concentration of 2 mg/mL. 0.5 ml of the above gavage test solution at a concentration of 2 mg/mL was precisely taken, and was made to constant volume of 5 ml with 4.5 ml of 5% glucose solution, to give an intravenous injection test solution at a concentration of 0.2 mg/mL. The solution was prepared immediately before being used in the experiment.
6 SD rats were randomly divided into two groups, and the synthesized compounds were administered by gavage and tail vein injection, respectively. About 0.3 mL of blood samples were collected from the retro-orbital venous plexus at 0 h before administration and at 5 min, 15 min, 30 min, 1 h, 1.5 h, 2 h, 4 h, 6 h, 9 h, 12 h, 24 h after administration for the gavage group; and at 0 h before administration and at 2 min, 5 min, 15 min, 30 min, 1 h, 2 h, 4 h, 6 h, 9 h, and 12 h after administration for the tail vein group. Each of the collected blood samples was put in a 1.5 mL centrifuge tube with heparin (Sigma, USA). The sample was centrifuged at 6000 rpm for 3 min to separate the plasma. 100 μL of plasma in the upper layer was placed into a new 1.5 mL centrifuge tube, and stored at −80° C. for determination. 10 mg of a standard for the compound to be tested was precisely weighed into a 10 mL volumetric flask, and was dissolved by adding methanol to make a constant volume and mixed uniformly, to give a 1 mg/mL stock solution. The stock solution was then diluted gradually with methanol to give a series of working solutions at concentrations of 0.01, 0.02, 0.05, 0.1, 0.2, 0.5, 1, 2, 5, 10, 20 μg/mL. The working solutions were placed in a refrigerator at 4° C. for later use. 11 centrifuge tubes were used. 10 μL of the above working solutions was respectively added to each of the centrifuge tubes, and then 90 μL of blank rat plasma was respectively added therein. The mixtures were mixed uniformly, so that the concentration of the compound in the rat plasma was 1, 2, 5, 10, 20, 50, 100, 200, 500, 1000, 2000 ng/mL. Then, 20 μL of a solution of caffeine as the internal standard (200 ng/mL) (National Institutes for Food and Drug Control, China) was added therein, and the resultant mixtures were vortexed for 10 s. Next, 400 μL of methanol was added. The resultant mixtures were vortexed for 10 min, and centrifuged at 16000 rpm for 5 min. Thereafter, 70 μL of the supernatant was placed into the inserted pipe of a sampling bottle. 5 μL of the sample was introduced for a LC-MS/MS analysis. A standard curve of the compound in the rat plasma was obtained by means of a linear regression performed by taking the ratio of the peak area of the sample to that of the internal standard As/Ais as the vertical ordinate, taking the concentration C (μg/mL) as the horizontal ordinate, and taking 1/C^2 was taken as a weighting coefficient.
To 100 μL of the rat plasma to be tested stored at −80° C., 20 μL of a caffeine solution (200 ng/mL) as the internal standard was added. The resultant mixture was vortexed for 10 s. […]

[3] = male, Sprague-Dawley, plasma, iv, 1 mg/kg, intravenous injection 1 mg/kg, average n=3
[4] = male, Sprague-Dawley, plasma, iv, 1 mg/kg, intravenous injection 1 mg/kg, individual rats #1-#3
[5] = intravenous injection 1 mg/kg, average n=3
[6] = intravenous injection 1 mg/kg, individual rats #1-#3, 1 mg/kg
[7] = oral administration (gavage) 10 mg/kg, average n=3
[8] = oral administration (gavage) 10 mg/kg, individual rats #1-#3, 10 mg/kg

Cc1ccc(NC(=O)c2cccc(C(F)(F)F)c2)cc1-n1cc(-c2cncc(N3CCOCC3)c2)cn1 [Example 16, N-(4-methyl-3-(4-(5-morpholinopyrid-3-yl)-1H-pyrazol-1-yl)phenyl)-3-(trifluoromethyl)benzamide]
toxicity [1]: did not exhibit any toxicity
AUC(0-inf) ([2]; male, SD, plasma, po, 10 mg/kg, oral administration (gavage) 10 mg/kg, average n=3): 11000 ng·h/mL
Tmax ([2]; male, SD, plasma, po, 10 mg/kg, oral administration (gavage) 10 mg/kg, average n=3, read-out: Tmax): 40.2 min
half-life ([2]; male, SD, plasma, po, 10 mg/kg, oral administration (gavage) 10 mg/kg, average n=3, read-out: T½ (converted)): 181 min
AUC(0-inf) ([2]; male, SD, plasma, po, 10 mg/kg, oral administration (gavage) 10 mg/kg, individual rats #1-#3): 13500 ng·h/mL
AUC0-t ([2]; male, SD, plasma, po, 10 mg/kg, oral administration (gavage) 10 mg/kg, individual rats #1-#3, read-out: AUC0-t): 13400 ng·h/mL
Tmax ([2]; male, SD, plasma, po, 10 mg/kg, oral administration (gavage) 10 mg/kg, individual rats #1-#3, read-out: Tmax): 30 min
half-life ([2]; male, SD, plasma, po, 10 mg/kg, oral administration (gavage) 10 mg/kg, individual rats #1-#3, read-out: T½ (converted)): 191 min
AUC(0-inf) [2, 3]: 765 ng·h/mL
clearance [2, 3]: 21.9 mL/min/kg
AUC0-t ([2]; male, Sprague-Dawley, plasma, iv, 1 mg/kg, intravenous injection 1 mg/kg, average n=3, read-out: AUC0-t): 742 ng·h/mL
C0 ([2]; male, Sprague-Dawley, plasma, iv, 1 mg/kg, intravenous injection 1 mg/kg, average n=3, read-out: C0): 1120 ng/mL
Cmax ([2]; male, Sprague-Dawley, plasma, iv, 1 mg/kg, intravenous injection 1 mg/kg, average n=3, read-out: Cmax): 914 ng/mL
MRT last ([2]; male, Sprague-Dawley, plasma, iv, 1 mg/kg, intravenous injection 1 mg/kg, average n=3, read-out: MRT0-t): 1.89 h
MRT inf ([2]; male, Sprague-Dawley, plasma, iv, 1 mg/kg, intravenous injection 1 mg/kg, average n=3, read-out: MRT0-∞): 2.33 h
Tmax ([2]; male, Sprague-Dawley, plasma, iv, 1 mg/kg, intravenous injection 1 mg/kg, average n=3, read-out: Tmax): 1.98 min
half-life ([2]; male, Sprague-Dawley, plasma, iv, 1 mg/kg, intravenous injection 1 mg/kg, average n=3, read-out: T½ (converted)): 181 min
Vd ([2]; male, Sprague-Dawley, plasma, iv, 1 mg/kg, intravenous injection 1 mg/kg, average n=3, read-out: Vz): 5.66 L/kg
AUC(0-inf) [2, 4]: 861 ng·h/mL
clearance [2, 4]: 19.4 mL/min/kg
AUC0-t ([2]; male, Sprague-Dawley, plasma, iv, 1 mg/kg, intravenous injection 1 mg/kg, individual rats #1-#3, read-out: AUC0-t): 822 ng·h/mL
C0 ([2]; male, Sprague-Dawley, plasma, iv, 1 mg/kg, intravenous injection 1 mg/kg, individual rats #1-#3, read-out: C0): 1310 ng/mL
Cmax ([2]; male, Sprague-Dawley, plasma, iv, 1 mg/kg, intravenous injection 1 mg/kg, individual rats #1-#3, read-out: Cmax): 1020 ng/mL
MRT last ([2]; male, Sprague-Dawley, plasma, iv, 1 mg/kg, intravenous injection 1 mg/kg, individual rats #1-#3, read-out: MRT0-t): 2.08 h
MRT inf ([2]; male, Sprague-Dawley, plasma, iv, 1 mg/kg, intravenous injection 1 mg/kg, individual rats #1-#3, read-out: MRT0-∞): 2.75 h
Tmax ([2]; male, Sprague-Dawley, plasma, iv, 1 mg/kg, intravenous injection 1 mg/kg, individual rats #1-#3, read-out: Tmax): 1.98 min
half-life ([2]; male, Sprague-Dawley, plasma, iv, 1 mg/kg, intravenous injection 1 mg/kg, individual rats #1-#3, read-out: T½ (converted)): 215 min
Vd ([2]; male, Sprague-Dawley, plasma, iv, 1 mg/kg, intravenous injection 1 mg/kg, individual rats #1-#3, read-out: Vz): 6.01 L/kg
bioavailability ([2]; male, Sprague-Dawley, plasma, oral, 10 mg/kg, oral administration (gavage) 10 mg/kg vs intravenous 1 mg/kg, average n=3, read-out: F (oral bioavailability)): 144%
AUC0-t ([2]; male, Sprague-Dawley, plasma, po, 10 mg/kg, oral administration (gavage) 10 mg/kg, average n=3, read-out: AUC0-t): 10900 ng·h/mL
Cmax ([2]; male, Sprague-Dawley, plasma, po, 10 mg/kg, oral administration (gavage) 10 mg/kg, average n=3, read-out: Cmax): 1480 ng/mL
MRT last ([2]; male, Sprague-Dawley, plasma, po, 10 mg/kg, oral administration (gavage) 10 mg/kg, average n=3, read-out: MRT0-t): 6.62 h
MRT inf ([2]; male, Sprague-Dawley, plasma, po, 10 mg/kg, oral administration (gavage) 10 mg/kg, average n=3, read-out: MRT0-∞): 6.81 h
MRT last ([2]; male, Sprague-Dawley, plasma, po, 10 mg/kg, oral administration (gavage) 10 mg/kg, individual rats #1-#3, read-out: MRT0-t): 5.99 h
MRT inf ([2]; male, Sprague-Dawley, plasma, po, 10 mg/kg, oral administration (gavage) 10 mg/kg, individual rats #1-#3, read-out: MRT0-∞): 6.19 h
AUMC0-t [2, 5]: 1413 hr*hr*ng/ml
AUMC0-∞ [2, 5]: 1805 hr*hr*ng/ml
AUC0-t [2, 6]: 680 ng·h/mL and 723 ng·h/mL
AUC0-∞ [2, 6]: 694 ng·h/mL and 742 ng·h/mL
AUMC0-t [2, 6]: 1708 hr*hr*ng/ml and 1207 hr*hr*ng/ml and 1326 hr*hr*ng/ml
AUMC0-∞ [2, 6]: 2368 hr*hr*ng/ml and 1418 hr*hr*ng/ml and 1630 hr*hr*ng/ml
C0 [2, 6]: 933 ng/mL and 1116 ng/mL
Cl [2, 6]: 1442 mL/h/kg and 1348 mL/h/kg
Cmax [2, 6]: 796 ng/mL and 925 ng/mL
MRT0-t [2, 6]: 1.77 h and 1.83 h
MRT0-∞ [2, 6]: 2.04 h and 2.20 h
T½ [2, 6]: 2.62 h and 2.84 h
Vz [2, 6]: 5441 mL/kg and 5521 mL/kg
F (oral bioavailability) ([2]; oral administration (gavage) 10 mg/kg vs intravenous 1 mg/kg, individual rats #1-#3): 176.1% and 157.7% and 98.3%
AUMC0-t [2, 7]: 70219 hr*hr*ng/ml
AUMC0-∞ [2, 7]: 72777 hr*hr*ng/ml
Cl [2, 7]: 967 mL/h/kg
Vz [2, 7]: 4204 mL/kg
AUC0-t [2, 8]: 11999 ng·h/mL and 7435 ng·h/mL
AUC0-∞ [2, 8]: 12067 ng·h/mL and 7520 ng·h/mL
AUMC0-t [2, 8]: 80004 hr*hr*ng/ml and 72172 hr*hr*ng/ml and 58480 hr*hr*ng/ml
AUMC0-∞ [2, 8]: 83364 hr*hr*ng/ml and 74076 hr*hr*ng/ml and 60891 hr*hr*ng/ml
Cl [2, 8]: 742 mL/h/kg and 829 mL/h/kg and 1330 mL/h/kg
Cmax [2, 8]: 2090 ng/mL and 1710 ng/mL and 645 ng/mL
MRT0-t [2, 8]: 6.01 h and 7.87 h
MRT0-∞ [2, 8]: 6.14 h and 8.10 h
Tmax [2, 8]: 60 min
T½ [2, 8]: 2.86 h and 3.01 h
Vz [2, 8]: 3418 mL/kg and 3420 mL/kg and 5773 mL/kg
